Assay results published in publication PMC4371799 (Clinical Epigenetics, 2015).
“And” between values parts separate entries of the source, which are not always exact repeats. Equal values may be shown once. Read-outs that look alike come from different tables or passages of the source. One block for each compound: values may come before it.

Key:
[1] = tested on: platinum-resistant ovarian cancer cells; settings: cited from earlier work
[2] = Azacitidine plasma pharmacokinetics, non-compartmental analysis; format: in vivo, patients; settings: for AUC / Cmax / half-life / AUC(0-inf): human, plasma, intravenous
Text: Compartmental and non-compartmental modeling were used to derive pharmacokinetic parameters, including Cmax (maximum concentration), AUC (area under the curve), t1/2 (half-life of elimination), Vd (volume of distribution), and CL (clearance).

CTR1 = tested on: CTR1; design: method as in PMID 19470736; settings: phase I clinical trial, refractory solid tumors and lymphomas; cited from earlier work
[3] = Oxaliplatin plasma pharmacokinetics, non-compartmental analysis; settings: for AUCall / AUCinf / C max / CL / V d / t 1/2: C1D2, mean (SD)
Protocol: This phase was followed by an expansion phase in which patients with CRC were treated with the maximum tolerated dose (MTD). Patients were treated with six cycles of therapy, unless they withdrew consent or experienced severe adverse events or progressive disease.
Oxaliplatin pharmacokinetics were assessed on day 2 during cycle 1 to permit correlation of pharmacokinetic parameters with toxicity and treatment outcome. Blood samples (10 ml per sample) were collected immediately prior to oxaliplatin infusion, immediately after infusion, and at 1, 2, 4, 6, 8, 12, and 24 h after infusion. Samples were assayed for total and unbound platinum using either inductively coupled plasma mass spectrometry or atomic absorption spectroscopy methods following isolation of the drug from plasma. Compartmental and non-compartmental models were used to derive pharmacokinetic parameters, including Cmax, AUC, t1/2, Vd, and CL.

[4] = design: method as in PMID 10778943; settings: traditional infusion once every 2 to 3 weeks; cited from earlier work
[5] = Total platinum levels in snap-frozen tumor samples (ICP-MS); format: in vivo, patients
Text: The tumor tissue was frozen and stored in cryogenic storage tubes before being analyzed for total platinum content using inductively coupled plasma mass spectrometry. If a sufficient amount of the sample remained following this analysis, the tissue was subjected to homogenization and extraction with 0.2% formic acid and acetonitrile for analysis by ultra-performance liquid chromatography/mass spectrometry for oxaliplatin content.

[6] = oxaliplatin treatment reported by other investigators; cited from earlier work
[7] = azacitidine/oxaliplatin 20/15 mg/m^2, C1D1, n = 3, mean (SD)
[8] = azacitidine/oxaliplatin 20/15 mg/m^2, C1D5, n = 3, mean (SD)
[9] = azacitidine/oxaliplatin 20/22.5 mg/m^2, C1D1, n = 3, mean (SD)
[10] = azacitidine/oxaliplatin 20/22.5 mg/m^2, C1D5, n = 3, mean (SD)
[11] = azacitidine/oxaliplatin 20/30 mg/m^2, C1D1, n = 3, mean (SD)
[12] = azacitidine/oxaliplatin 20/30 mg/m^2, C1D5, n = 3, mean (SD)
[13] = azacitidine/oxaliplatin 25/30 mg/m^2, C1D1, n = 3, mean (SD)
[14] = azacitidine/oxaliplatin 25/30 mg/m^2, C1D5, n = 3, mean (SD)
[15] = azacitidine/oxaliplatin 40/30 mg/m^2, C1D1, n = 3, mean (SD)
[16] = azacitidine/oxaliplatin 40/30 mg/m^2, C1D5, n = 3, mean (SD)
[17] = azacitidine/oxaliplatin 50/30 mg/m^2, C1D1, n = 22, mean (SD)
[18] = azacitidine/oxaliplatin 50/30 mg/m^2, C1D5, n = 22, mean (SD)
[19] = azacitidine/oxaliplatin 20/15 mg/m^2, n = 3
[20] = azacitidine/oxaliplatin 20/22.5 mg/m^2, n = 3
[21] = azacitidine/oxaliplatin 20/30 mg/m^2, n = 3
[22] = azacitidine/oxaliplatin 25/30 mg/m^2, n = 3
[23] = azacitidine/oxaliplatin 40/30 mg/m^2, n = 3
[24] = azacitidine/oxaliplatin 50/30 mg/m^2, n = 22
[25] = oxaliplatin 15 to 30 mg/m^2/day IV over 2 h, days 2 to 5, mean over dose levels
[26] = post-dose vs pre-dose, five post-dose tumor samples, dose level 6
[27] = seven patients, expansion phase, before treatment

CL [2, 7]: 167.1 (170.5) l/h/m^2
V d [2, 7]: 92.3 (58.9) l/m^2
CL [2, 8]: 136.7 (97.0) l/h/m^2
V d [2, 8]: 61.1 (35.4) l/m^2
CL [2, 9]: 62.7 (53.9) l/h/m^2
V d [2, 9]: 78.6 (54.4) l/m^2
CL [2, 10]: 62.9 (25.4) l/h/m^2
V d [2, 10]: 85.4 (69.0) l/m^2
CL [2, 11]: 239.3 (139.2) l/h/m^2
V d [2, 11]: 226.5 (253.4) l/m^2
CL [2, 12]: 146.1 (40.0) l/h/m^2
V d [2, 12]: 71.6 (19.0) l/m^2
CL [2, 13]: 168.6 (126.7) l/h/m^2
V d [2, 13]: 70.3 (35.7) l/m^2
CL [2, 14]: 150.0 (74.6) l/h/m^2
V d [2, 14]: 132.2 (62.5) l/m^2
CL [2, 15]: 616.6 (525.5) l/h/m^2
V d [2, 15]: 105.8 (37.0) l/m^2
CL [2, 16]: 253.0 (165.5) l/h/m^2
V d [2, 16]: 95.6 (57.3) l/m^2
AUCinf [2, 17]: 412.1 (195.7) h-ng/ml
C max [2, 17]: 581.1 (284.8) ng/ml
CL [2, 17]: 178 l/h/m^2 and 177.7 (155.9) l/h/m^2
V d [2, 17]: 121 l/m^2 and 120.6 (112.0) l/m^2
AUCinf [2, 18]: 431.5 (261.7) h-ng/ml
C max [2, 18]: 637.7 (428.6) ng/ml
CL [2, 18]: 156 l/h/m^2 and 156.2 (80.7) l/h/m^2
V d [2, 18]: 94 l/m^2 and 94.0 (50.7) l/m^2
AUC [2, 7]: 216 ng·h/mL
Cmax [2, 7]: 327 ng/mL
half-life [2, 7]: 32.4 min
AUC(0-inf) ([2]; azacitidine/oxaliplatin 20/15 mg/m^2, C1D1, n = 3, mean (SD), read-out: AUCinf): 221 ng·h/mL
AUC [2, 8]: 193 ng·h/mL
Cmax [2, 8]: 334 ng/mL
half-life [2, 8]: 21 min
AUC(0-inf) ([2]; azacitidine/oxaliplatin 20/15 mg/m^2, C1D5, n = 3, mean (SD), read-out: AUCinf): 196 ng·h/mL
AUC [2, 9]: 428 ng·h/mL
Cmax [2, 9]: 427 ng/mL
half-life [2, 9]: 653 min
AUC(0-inf) ([2]; azacitidine/oxaliplatin 20/22.5 mg/m^2, C1D1, n = 3, mean (SD), read-out: AUCinf): 2330 ng·h/mL
AUC(0-inf) ([2]; azacitidine/oxaliplatin 20/22.5 mg/m^2, C1D1, n = 3, median (footnote a), read-out: AUCinf, median): 259 ng·h/mL
AUC [2, 10]: 317 ng·h/mL
Cmax [2, 10]: 452 ng/mL
half-life [2, 10]: 76.2 min
AUC(0-inf) ([2]; azacitidine/oxaliplatin 20/22.5 mg/m^2, C1D5, n = 3, mean (SD), read-out: AUCinf): 357 ng·h/mL
AUC [2, 11]: 112 ng·h/mL
Cmax [2, 11]: 206 ng/mL
half-life [2, 11]: 32.4 min
AUC(0-inf) ([2]; azacitidine/oxaliplatin 20/30 mg/m^2, C1D1, n = 3, mean (SD), read-out: AUCinf): 125 ng·h/mL
AUC [2, 12]: 144 ng·h/mL
Cmax [2, 12]: 214 ng/mL
half-life [2, 12]: 20.4 min
AUC(0-inf) ([2]; azacitidine/oxaliplatin 20/30 mg/m^2, C1D5, n = 3, mean (SD), read-out: AUCinf): 146 ng·h/mL
AUC [2, 13]: 210 ng·h/mL
Cmax [2, 13]: 252 ng/mL
half-life [2, 13]: 19.8 min
AUC(0-inf) ([2]; azacitidine/oxaliplatin 25/30 mg/m^2, C1D1, n = 3, mean (SD), read-out: AUCinf): 216 ng·h/mL
AUC [2, 14]: 208 ng·h/mL
Cmax [2, 14]: 273 ng/mL
half-life [2, 14]: 43.2 min
AUC(0-inf) ([2]; azacitidine/oxaliplatin 25/30 mg/m^2, C1D5, n = 3, mean (SD), read-out: AUCinf): 214 ng·h/mL
AUC [2, 15]: 97.5 ng·h/mL
Cmax [2, 15]: 190 ng/mL
half-life [2, 15]: 9.6 min
AUC(0-inf) ([2]; azacitidine/oxaliplatin 40/30 mg/m^2, C1D1, n = 3, mean (SD), read-out: AUCinf): 100 ng·h/mL
AUC [2, 16]: 206 ng·h/mL
Cmax [2, 16]: 289 ng/mL
half-life [2, 16]: 16.2 min
AUC(0-inf) ([2]; azacitidine/oxaliplatin 40/30 mg/m^2, C1D5, n = 3, mean (SD), read-out: AUCinf): 212 ng·h/mL
AUC [2, 17]: 404 ng·h/mL
Cmax [2, 17]: 581 ng/mL
half-life [2, 17]: 40.2 min
AUC(0-inf) ([2]; azacitidine/oxaliplatin 50/30 mg/m^2, C1D1, n = 22, mean (SD), read-out: AUCinf): 412 ng·h/mL
AUC [2, 18]: 426 ng·h/mL
Cmax [2, 18]: 638 ng/mL
half-life [2, 18]: 25.2 min
AUC(0-inf) ([2]; azacitidine/oxaliplatin 50/30 mg/m^2, C1D5, n = 22, mean (SD), read-out: AUCinf): 432 ng·h/mL
Compound: Nc1ncn([C@@H]2O[C@H](CO)[C@@H](O)[C@H]2O)c(=O)n1 [azacitidine]
effect on sensitivity to carboplatin [1]: enhance the sensitivity of platinum-resistant ovarian cancer cells to carboplatin
dose-dependent interaction on mean systemic exposure (plasma AUCall) ([2]; azacitidine D1 and 5, with oxaliplatin): increasing the dose of oxaliplatin reduced the mean azacitidine exposure

Compound: Nc1ncn([C@H]2C[C@H](O)[C@@H](CO)O2)c(=O)n1 [decitabine]
effect on CTR1 expression (CTR1): significantly increased CTR1 expression

Compound: O=C1[O][Pt]2([NH][C@@H]3CCCC[C@H]3[NH]2)[O]C1=O [oxaliplatin]
AUCall [3, 19]: 704.3 (228.5) h-ng/ml
AUCinf [3, 19]: 1,003.5 (211.1) h-ng/ml
C max [3, 19]: 337.3 (141.3) ng/ml
CL [3, 19]: 15.5 (3.7) l/h/m^2
V d [3, 19]: 829.2 (580.0) l/m^2
t 1/2 [3, 19]: 38.9 (31.9) h
AUCall [3, 20]: 1,178.4 (238.0) h-ng/ml
AUCinf [3, 20]: 1,359.3 (167.1) h-ng/ml
C max [3, 20]: 573.5 (131.1) ng/ml
CL [3, 20]: 16.7 (2.0) l/h/m^2
V d [3, 20]: 443.5 (232.2) l/m^2
t 1/2 [3, 20]: 17.9 (7.7) h
AUCall [3, 21]: 1,149.0 (930.3) h-ng/ml
AUCinf [3, 21]: 1,411.6 (1,065.1) h-ng/ml
C max [3, 21]: 446.9 (447.8) ng/ml
CL [3, 21]: 29.1 (15.7) l/h/m^2
V d [3, 21]: 794.5 (703.8) l/m^2
t 1/2 [3, 21]: 18.6 (11.9) h
AUCall [3, 22]: 1,369.1 (556.1) h-ng/ml
AUCinf [3, 22]: 1,919.4 (923.3) h-ng/ml
C max [3, 22]: 582.6 (270.3) ng/ml
CL [3, 22]: 19.2 (11.4) l/h/m^2
V d [3, 22]: 587.5 (240.1) l/m^2
t 1/2 [3, 22]: 23.7 (10.2) h
AUCall [3, 23]: 1,543.5 (502.1) h-ng/ml
AUCinf [3, 23]: 1,867.0 (387.0) h-ng/ml
C max [3, 23]: 751.7 (275.5) ng/ml
CL [3, 23]: 16.6 (3.9) l/h/m^2
V d [3, 23]: 613.8 (541.2) l/m^2
t 1/2 [3, 23]: 23.3 (15.6) h
AUCall [3, 24]: 1,286.3 (627.0) h-ng/ml
AUCinf [3, 24]: 1,456 h-ng/ml and 1,455.9 (657.6) h-ng/ml
C max [3, 24]: 650 ng/ml and 649.4 (384.5) ng/ml
CL [3, 24]: 24.5 l/h/m^2 and 24.5 (10.2) l/h/m^2
V d [3, 24]: 554 l/m^2 and 554.0 (250.7) l/m^2
t 1/2 [3, 24]: 16.5 (7.1) h
AUCinf, mean of the current infusion regimen [3, 25]: 1,503 ng-h/ml
Cmax, mean of the current infusion regimen [3, 25]: 557 ng/mL
kinetics of elimination ([3]; plasma, all dose levels): first-order kinetics of elimination
AUCinf, mean, traditional infusion [4]: 9,907 ng-h/ml
Cmax, mean, traditional infusion [4]: 877 ng/mL
increase of tumor platinum concentration, median [5, 26]: 3.8 fold
increase of tumor platinum concentration, range [5, 26]: 3- to 18 fold
change of tumor platinum concentration ([5]; post-dose vs pre-dose, the two tumor samples with the highest pre-dose level): remained unchanged
pre-dose platinum level in tumor, median [5, 27]: 0.59 μg/g tumor
pre-dose platinum level in tumor, range [5, 27]: <0.25 to 5.8 μg/g tumor
incidence of peripheral neuropathy, all grades [6]: 40% to 50
incidence of peripheral neuropathy, grade ≥3 [6]: 10% to 20
